Assay results published in patent US10506759B2, “Rice seed treatment agent” (KUMIAI CHEMICAL INDUSTRY CO., LTD., priority 2015, dated 2019).
Like-named read-outs stand apart in the source and are kept apart here.

Columns and labels:
paddy rice [1] = experiment: Test Example 1: germination rate of treated paddy seeds (pot test); assay type: in vivo
Method: (§1) Treatment of dried paddy seeds was carried out at a coating ratio of 0.5 (seeds:iron powder=1:0.5). More specifically, paddy seeds, an iron powder, and calcined gypsum were mixed and stirred together while spraying water thereon, using a coating machine according to a conventional method, to coat the seeds with the iron powder and the calcined gypsum. The outer layer of the coated seeds was further similarly coated with finishing calcined gypsum mixed with each of the paddy seed treatment agents containing the herbicidal active components shown in Tables 2 to 6.
In a 200-cm^2 plastic pot, paddy field soil was placed, and tillage was carried out, followed by sowing seeds of Echinochloa oryzicola and Scirpus juncoides on the soil surface. Then, tubers of Eleocharis kuroguwai in the germination state were buried in such a manner that tips of the sprouts in tubers are exposed to the outside of the soil surface. Four paddy seeds treated with each paddy seed treatment agent obtained in Preparation Example were sown, and water was gently introduced to allow flooding to a depth of 4 cm. On Day 7 after the sowing, the water was removed by suction. When the rice seedlings have grown to the one-leaf stage, flooding was allowed again to a depth of 4 cm. On Day 15 after the sowing, the germination rate of the paddy seeds and the growth-inhibitory effect on the weeds were judged. The germination rate of the paddy seeds is expressed as %, and the growth-inhibitory effect on the weeds is expressed as a value of 0 to 100 representing the degree of inhibition, wherein 0 represents no inhibition, and 100 represents complete death.

Lindernia species = experiment: Test Example 2: growth-inhibitory effect on weeds (pot test); assay type: in vivo; conditions: Table 6; spontaneously grown weeds; scale 0 to 100; Day 22 after sowing
Method: as §1
(§2) In a 200-cm^2 plastic pot, paddy field soil was placed, and tillage was carried out, followed by sowing seeds of Scirpus juncoides on the soil surface. Then, the seeds were covered with 0.5-cm thick soil. Subsequently, flooding was allowed to a depth of 4 cm, followed by sowing seeds of Monochoria vaginalis on the soil surface. When the Monochoria vaginalis reached the five-leaf stage, three paddy seeds treated with each paddy seed treatment agent obtained in Preparation Example were sown. On Day 22 after the sowing of paddy seeds, the germination rate of the paddy seeds and the growth-inhibitory effect on the weeds were judged. Since Lindernia species were spontaneously grown in the test field soil, the growth-inhibitory effect on the Lindernia species were also judged. The germination rate of the paddy seeds is expressed as %, and the growth-inhibitory effect on the weeds is expressed as a value of 0 to 100 representing the degree of inhibition, wherein 0 represents no inhibition, and 100 represents complete death.

Scirpus juncoides = experiment: as above; assay type: in vivo; conditions: Table 6; scale 0 to 100 (complete death); Day 22 after sowing of paddy seeds
Method: as §1, §2

Monochoria vaginalis = experiment: as above; assay type: in vivo; conditions: Table 6; paddy seeds sown at five-leaf stage of weed; scale 0 to 100; Day 22 after sowing
Method: as §1, §2

paddy rice [2] = conditions: in vivo, 22 days
Method: as §1
as §2, with “On Day 22 after the sowing of paddy seeds, the germination rate of the paddy seeds and the growth-inhibitory effect on the weeds were judged. Since Lindernia species were spontaneously grown in the test field soil, the growth-inhibitory effect on the Lindernia species were also judged.” left out

| Germination rate of paddy rice (%) (paddy rice [1]; in vivo) | Germination rate of paddy rice (%) (paddy rice [2]) | Germination rate of paddy rice (%) (paddy rice [1]; Table 2, iron-coated seeds treated with agent (a.i. g per 1 kg seeds as in row), Day 15 after sowing) | Structure (SMILES) | Growth-inhibitory rate Lindernia species (Lindernia species) | Growth-inhibitory rate Scirpus juncoides (Scirpus juncoides) | Growth-inhibitory rate Monochoria vaginalis (Monochoria vaginalis) |
| --- | --- | --- | --- | --- | --- | --- |
| 50 | – | – | CS(=O)(=O)c1ccc(C(=O)C2C(=O)CCCC2=O)c(Cl)c1COCC1CCCO1 (stereo not shown) [compound 1, Tefuryltrione] | – | – | – |
| – | 100 | 100 | COc1ccc(-n2c(=O)c(C(=O)C3C(=O)CCCC3=O)nc3c(Cl)cccc32)cc1 [Example 1, Fenquinotrione] | 95 | 98 | 95 |
| 50 | – | – | CS(=O)(=O)c1ccc(C(=O)C2=C(Sc3ccccc3)C3CCC(C3)C2=O)c(Cl)c1 (stereo not shown) [compound 2, Benzobicyclon] | – | – | – |
